These results are taken from ChEMBL document CHEMBL3045519, “Selective Herbicidal Activity of 3, 5-Dichloropyridyloxy-phenoxypropionamidoxyacetic Acid Derivatives between Wheat and Wild Oat” (J Pestic Sci, 1996).

Each structure is given as a SMILES string. Active and inactive are the calls of the source. No cut-off for these calls is given here.

Data set [1] has as its system Avena fatua. Description: Post-emergence herbicidal activity against Avena fatua under greenhouse conditions at 2.5 g/a at 1.5-leaf stage measured after 3 weeks by pot test. Type of data set: functional, organism-based.
The subject of data set [2] is Triticum aestivum. Description: Phytotoxicity against Triticum aestivum (wheat) under greenhouse conditions at 0.3 g/a at 1.5-leaf stage measured after 3 weeks by pot test. Format: organism-based. Particulars: in vivo, 504 h.
Data set [3] deals with Avena fatua. Description: Post-emergence herbicidal activity against Avena fatua under greenhouse conditions at 0.3 g/a at 1.5-leaf stage measured after 3 weeks by pot test. Type of data set: functional, organism-based.
The subject of data set [4] is Avena fatua. Description: Post-emergence herbicidal activity against Avena fatua under greenhouse conditions at 0.6 g/a at 1.5-leaf stage measured after 3 weeks by pot test. Format: functional, organism-based.
The test system of data set [5] is Triticum aestivum. Nature of the data set: Phytotoxicity against Triticum aestivum (wheat) under greenhouse conditions at 1.3 g/a at 1.5-leaf stage measured after 3 weeks by pot test. Type of data set: organism-based. As to conditions: in vivo, 504 h.
For data set [6], the system named is Triticum aestivum. Description: Phytotoxicity against Triticum aestivum (wheat) under greenhouse conditions at 2.5 g/a at 1.5-leaf stage measured after 3 weeks by pot test. Format: organism-based. Particulars: in vivo, 504 h.
In data set [7] the test system is Triticum aestivum. Description: Phytotoxicity against Triticum aestivum (wheat) under greenhouse conditions at 0.6 g/a at 1.5-leaf stage measured after 3 weeks by pot test. Format: organism-based. As to conditions: in vivo, 504 h.
Data set [8] deals with Avena fatua. Nature of the data set: Post-emergence herbicidal activity against Avena fatua under greenhouse conditions at 1.3 g/a at 1.5-leaf stage measured after 3 weeks by pot test. Type of data set: functional, organism-based.

`COC(=O)C(C)Oc1ccc(Oc2ncc(Cl)cc2Cl)cc1` (stereo unspecified): the result in the data set on Avena fatua [1], with Avena fatua [3], with Avena fatua [4] and in the data set with Avena fatua [8] was Active. Besides, the Activity entry with Triticum aestivum [2], with Triticum aestivum [5], in the data set on Triticum aestivum [6] and with Triticum aestivum [7] was “Toxic” in each case.
`CC(Oc1ccc(Oc2ncc(Cl)cc2Cl)cc1)C(=O)NOCC(=O)O` (stereo unspecified): the result in the data set on Avena fatua [1], in the data set on Avena fatua [3] and in the data set on Avena fatua [4] was Active. In addition, the Activity result in the data set on Triticum aestivum [2], in the data set on Triticum aestivum [5], in the data set on Triticum aestivum [6] and in the data set on Triticum aestivum [7] was “Non-toxic” each time. Further, in the data set with Avena fatua [8], the result was inactive.
As to `CC(Oc1ccc(Oc2ncc(Cl)cc2Cl)cc1)C(=O)NO` (stereo unspecified), the result in the data set with Avena fatua [1], in the data set with Avena fatua [4] and in the data set with Avena fatua [8] was Active. Further, the Activity entry in the data set with Triticum aestivum [2], with Triticum aestivum [5], in the data set on Triticum aestivum [6] and in the data set with Triticum aestivum [7] was “Non-toxic” throughout. In addition, the result with Avena fatua [3] was inactive.
In the case of `CCCNC(=O)CNC(=O)C(C)Oc1ccc(Oc2ncc(Cl)cc2Cl)cc1` (stereo unspecified), the outcome in the data set on Avena fatua [1], in the data set with Avena fatua [4] and in the data set on Avena fatua [8] was Active. The Activity result in the data set on Triticum aestivum [2] is on record as “Non-toxic”; in the data set with Triticum aestivum [5] it was “Non-toxic”; with Triticum aestivum [6], “Toxic”; in the data set on Triticum aestivum [7], “Non-toxic”. For the same compound, the result in the data set on Avena fatua [3] was inactive.
For the compound `CONC(=O)C(C)Oc1ccc(Oc2ncc(Cl)cc2Cl)cc1` (stereo unspecified), the result in the data set on Avena fatua [1], with Avena fatua [3], with Avena fatua [4] and in the data set on Avena fatua [8] was Active. The Activity result with Triticum aestivum [2] is listed as “Non-toxic”; in the data set on Triticum aestivum [5] it was “Toxic”; with Triticum aestivum [6], “Toxic”; in the data set on Triticum aestivum [7], “Toxic”.
As for `CCCOC(=O)CNC(=O)C(C)Oc1ccc(Oc2ncc(Cl)cc2Cl)cc1` (stereo unspecified), the result with Avena fatua [1], in the data set on Avena fatua [3], with Avena fatua [4] and in the data set with Avena fatua [8] was Active. Besides, the Activity entry in the data set with Triticum aestivum [2], with Triticum aestivum [5], in the data set on Triticum aestivum [6] and in the data set on Triticum aestivum [7] was “Non-toxic” each time.
As for `CC(Oc1ccc(Oc2ncc(Cl)cc2Cl)cc1)C(=O)NCCC(=O)O` (stereo unspecified), the outcome in the data set with Avena fatua [1] and in the data set on Avena fatua [8] was Active. Also, the Activity result with Triticum aestivum [2], in the data set on Triticum aestivum [5], with Triticum aestivum [6] and in the data set on Triticum aestivum [7] was “Non-toxic” in each case. The result with Avena fatua [3] and in the data set on Avena fatua [4] was inactive.
For `CC(Oc1ccc(Oc2ncc(C(F)(F)F)cc2Cl)cc1)C(=O)O` (stereo unspecified) [HALOXYFOP], the outcome with Avena fatua [1], with Avena fatua [3], with Avena fatua [4] and in the data set with Avena fatua [8] was Active. Also, the Activity result in the data set with Triticum aestivum [2], in the data set on Triticum aestivum [5], in the data set on Triticum aestivum [6] and with Triticum aestivum [7] was “Toxic” each time.
For the compound `CC(Oc1ccc(Oc2ncc(C(F)(F)F)cc2Cl)cc1)C(=O)NOCC(=O)O` (stereo unspecified), the outcome with Avena fatua [1], in the data set with Avena fatua [3], in the data set with Avena fatua [4] and with Avena fatua [8] was Active. For the same compound, the Activity result with Triticum aestivum [2], in the data set with Triticum aestivum [5], with Triticum aestivum [6] and in the data set on Triticum aestivum [7] was “Toxic” each time.
Consider `CCOC(=O)C(C)Oc1ccc(Oc2ncc(Cl)cc2Cl)cc1` (stereo unspecified), for which the result in the data set with Avena fatua [1], in the data set with Avena fatua [3], in the data set with Avena fatua [4] and in the data set on Avena fatua [8] was Active. The Activity entry in the data set on Triticum aestivum [2], with Triticum aestivum [5], in the data set on Triticum aestivum [6] and in the data set with Triticum aestivum [7] was “Toxic” each time.
As to `CC(Oc1ccc(Oc2cnc3cc(Cl)ccc3n2)cc1)C(=O)NOCC(=O)O` (stereo unspecified), the outcome with Avena fatua [1], with Avena fatua [3], in the data set with Avena fatua [4] and in the data set on Avena fatua [8] was Active. Further, the Activity result with Triticum aestivum [2], with Triticum aestivum [5], with Triticum aestivum [6] and in the data set with Triticum aestivum [7] was “Toxic” in each case.
Take `O=C(O)CONC(=O)COc1ccc(Oc2ncc(Cl)cc2Cl)cc1`: the result in the data set with Avena fatua [1], in the data set with Avena fatua [3], in the data set on Avena fatua [4] and with Avena fatua [8] was inactive. For the same compound, the Activity result with Triticum aestivum [2], in the data set with Triticum aestivum [5], with Triticum aestivum [6] and in the data set on Triticum aestivum [7] was “Non-toxic” each time.
`CCCCOC(=O)CNC(=O)C(C)Oc1ccc(Oc2ncc(Cl)cc2Cl)cc1` (stereo unspecified): the result in the data set with Avena fatua [1], in the data set with Avena fatua [3], with Avena fatua [4] and in the data set on Avena fatua [8] was Active. The Activity result in the data set with Triticum aestivum [2], in the data set on Triticum aestivum [5], in the data set with Triticum aestivum [6] and in the data set on Triticum aestivum [7] was “Non-toxic” in each case.
On to `CC(Oc1ccc(Oc2ccc(C(F)(F)F)cn2)cc1)C(=O)NOCC(=O)O` (stereo unspecified), for which the outcome in the data set with Avena fatua [1], with Avena fatua [4] and in the data set with Avena fatua [8] was Active. For the same compound, the Activity entry in the data set on Triticum aestivum [2], in the data set on Triticum aestivum [5], in the data set on Triticum aestivum [6] and in the data set with Triticum aestivum [7] was “Toxic” each time. Besides, the outcome in the data set on Avena fatua [3] was inactive.
Consider `CCCCNC(=O)CNC(=O)C(C)Oc1ccc(Oc2ncc(Cl)cc2Cl)cc1` (stereo unspecified), for which the outcome in the data set with Avena fatua [1], with Avena fatua [3], with Avena fatua [4] and with Avena fatua [8] was Active. The Activity result in the data set with Triticum aestivum [2] was “Non-toxic”; in the data set on Triticum aestivum [5], “Non-toxic”; in the data set with Triticum aestivum [6], “Toxic”; with Triticum aestivum [7], “Non-toxic”.
For the compound `CNC(=O)C(C)Oc1ccc(Oc2ncc(Cl)cc2Cl)cc1` (stereo unspecified), the result in the data set with Avena fatua [1], in the data set on Avena fatua [3], with Avena fatua [4] and with Avena fatua [8] was inactive. The Activity result with Triticum aestivum [2], in the data set with Triticum aestivum [5], in the data set with Triticum aestivum [6] and in the data set on Triticum aestivum [7] was “Non-toxic” each time.
For the compound `CC(Oc1ccc(Oc2ncc(Cl)cc2Cl)cc1)C(N)=O` (stereo unspecified), the result in the data set with Avena fatua [1], in the data set with Avena fatua [4] and with Avena fatua [8] was Active. In addition, the Activity result with Triticum aestivum [2], in the data set on Triticum aestivum [5], in the data set on Triticum aestivum [6] and in the data set on Triticum aestivum [7] was “Non-toxic” in each case. Further, the outcome in the data set with Avena fatua [3] was inactive.
`CCOC(=O)CNC(=O)C(C)Oc1ccc(Oc2ncc(Cl)cc2Cl)cc1` (stereo unspecified): the result with Avena fatua [1], in the data set with Avena fatua [3], in the data set on Avena fatua [4] and with Avena fatua [8] was Active. Moreover, the Activity result is “Non-toxic” with Triticum aestivum [2], “Non-toxic” with Triticum aestivum [5], “Toxic” in the data set on Triticum aestivum [6] and “Non-toxic” in the data set on Triticum aestivum [7].
Turning to `CC(Oc1ccc(Oc2ccc(C(F)(F)F)cn2)cc1)C(=O)O` (stereo unspecified) [FLUAZIFOP], the result with Avena fatua [1], with Avena fatua [3], in the data set with Avena fatua [4] and in the data set on Avena fatua [8] was Active. For the same compound, the Activity result in the data set on Triticum aestivum [2], in the data set on Triticum aestivum [5], in the data set with Triticum aestivum [6] and with Triticum aestivum [7] was “Toxic” in each case.
As to `COC(=O)CNC(=O)C(C)Oc1ccc(Oc2ncc(Cl)cc2Cl)cc1` (stereo unspecified), the outcome with Avena fatua [1], with Avena fatua [3], in the data set on Avena fatua [4] and in the data set with Avena fatua [8] was Active. The Activity entry with Triticum aestivum [2], in the data set on Triticum aestivum [5], in the data set with Triticum aestivum [6] and with Triticum aestivum [7] was “Non-toxic” throughout.
For the compound `CC(Oc1ccc(Oc2ncc(Cl)cc2Cl)cc1)C(=O)N(C)OCC(=O)O` (stereo unspecified), the outcome in the data set with Avena fatua [1] and in the data set with Avena fatua [8] was Active. The Activity entry in the data set on Triticum aestivum [2], with Triticum aestivum [5], with Triticum aestivum [6] and in the data set on Triticum aestivum [7] was “Non-toxic” in each case. Besides, the result in the data set with Avena fatua [3] and in the data set with Avena fatua [4] was inactive.
On to `CC(Oc1ccc(Oc2ncc(Cl)cc2Cl)cc1)C(=O)NCC(N)=O` (stereo unspecified), for which the result in the data set on Avena fatua [1], with Avena fatua [3], in the data set on Avena fatua [4] and with Avena fatua [8] was Active. In addition, the Activity entry in the data set on Triticum aestivum [2] was “Non-toxic”; in the data set with Triticum aestivum [5], “Non-toxic”; in the data set on Triticum aestivum [6], “Toxic”; in the data set on Triticum aestivum [7] it was “Non-toxic”.
